For 78 compounds, EC50 results are on record in PubChem BioAssay AID1159536 (DiRusso Lab, Biochemistry Department, University of Nebraska, 2015).

Results filed as inconclusive are left out. Calls of active or inactive are those of the source. How the calls were made is not given here.

The assay concerns Chlamydomonas reinhardtii, Nile Red lipid fluorescence, 72 h. The assay is described as follows: algal triacylglycerol accumulation inducers, dose response, qHTS, Chlamydomonas reinhardtii (AID 1159536). Background: Quantitative high-throughput screening tests each substance at several concentrations.

As a reminder, the EC50 is the midpoint of the concentration-response curve. Take `COc1cc(C)c(CN2CCCN(C)CC2)cc1C`: the EC50 was 10.3 µM.
Consider `COc1ccccc1N1CCN(Cc2ccc(C)cc2)CC1`, for which the EC50 is 3.65 µM.
`C(=C\c1ccccc1)/CN1CCN(C2C3CC4CC(C3)CC2C4)CC1` (stereo not drawn): the 50% effective concentration (EC50) is 3.99 µM.
Turning to `Cc1cccc(N2CCN(Cc3ccc([N+](=O)[O-])cc3)CC2)c1C`, the EC50 is 10.9 µM.
To `Cc1cc(Br)ccc1OCCCCN1CCN(C)CC1` belongs 3.38 µM; to `Cc1ccc(CN2CCCC(CO)C2)cc1` (stereo not drawn), 10.1 µM; to `COc1ccc(OCCCN2CCCCC2)cc1`, 13.8 µM.
Take `Clc1ccc(CN2CCCCCC2)cc1`: the EC50 is 2.05 µM.
Consider `Clc1ccc(OCCCCN2CCCC2)c(Br)c1`, for which the EC50 is 2.55 µM.
To `O=C1C2C3CCC(C3)C2C(=O)N1c1nccs1` (stereo not drawn) belongs 13.5 µM (inactive); to `OC(COc1ccc(Br)cc1)CN1CCCCCC1` (stereo not drawn), 10.6 µM (inactive); to `CCSc1ccc(C(=O)Nc2ccc(Cc3ccncc3)cc2)cc1[N+](=O)[O-]`, 2.64 µM.
With `Oc1ccc(Br)cc1CN1CCN(CC2CC3C=CC2C3)CC1` (stereo not drawn), the EC50 is 9.95 µM.
In the case of `CC(C)c1ccc(CN2CCN(C)CC2)cc1`, the EC50 is 3.5 µM.
In the case of `O=C(c1ccccc1)c1ccc(OCCCCn2ccnc2)cc1`, the EC50 is 1.33 µM (inactive).
On to `Oc1ccc(CN2CCN(c3ccccc3Cl)CC2)cc1`, for which the EC50 is 0.632 µM.
As for `COc1ccc(C(=O)Nc2sc3c(c2C(N)=O)CCC(C)C3)c(OC)c1` (stereo not drawn), the EC50 was 15.8 µM (inactive).
Take `Cc1cc(C=O)c(C)n1-c1ccc(Br)cc1F`: the EC50 is 12 µM (inactive).
In the case of `Cc1cc(I)ccc1S(=O)(=O)NCCCN1CCOCC1`, the EC50 was 1.28 µM.
In the case of `Cc1ccc(C(C)C)cc1OCCOCCN1CCOCC1`, the EC50 was 2.18 µM.
Turning to `C=CCn1c(SCC(=O)NCCc2ccccc2)nnc1-c1ccc(Cl)cc1Cl`, the EC50 was 4.05 µM.
For the compound `COc1cc(CN2CCN(Cc3ccccc3)CC2)cc(OC)c1`, the EC50 is 8.98 µM.
As to `OC(COc1ccc(Cl)cc1Cl)CN1CCN(Cc2ccccc2)CC1` (stereo not drawn), the 50% effective concentration (EC50) is 7.67 µM.
The result for `CC1CCCN(C2CCN(S(=O)(=O)c3ccc(F)cc3)CC2)C1` (stereo not drawn) reads 13.1 µM; that for `CCC(C)c1ccccc1OCCOCCN1CCOCC1` (stereo not drawn), 13.1 µM; that for `c1ccc(N2CCN(CC3CCCCC3)CC2)cc1`, 1.03 µM.
As for `CN1CCN(Cc2ccc3c(c2)Cc2ccccc2-3)CC1`, the EC50 was 9.99 µM.
`O=C(Nc1ccccc1)Nc1ccccc1C(=O)N1CCOCC1`: the EC50 is 22.2 µM (inactive).
For `Cc1ccc(C)c(N2CCN(CC3CC4C=CC3C4)CC2)c1` (stereo not drawn), the EC50 is 30.4 µM.
To `COc1cccc(N2CCN(Cc3ccsc3)CC2)c1` belongs 10 µM.
Take `Cc1ccc(OCCCn2ccnc2)c(Br)c1`: the EC50 is 1.26 µM.
For the compound `C/C(=C\c1ccccc1)CN(C)CCN(C)C`, the EC50 is 2.65 µM.
As to `CC1CCC(N2CCN(Cc3ccccc3)CC2)CC1` (stereo not drawn), the EC50 was 5.57 µM.
For `CC(=O)c1nc2cc([N+](=O)[O-])ccc2n1Cc1ccccc1`, the EC50 was 10 µM (inactive).
On to `Cc1ccc(C(=O)c2ccc(N3CCN(C)CC3)c([N+](=O)[O-])c2)cc1`, for which the EC50 was 2.59 µM (inactive).
With `CN(c1ccc(C(=O)NC2CCCCCC2)cc1)S(=O)(=O)c1ccccc1`, the EC50 is 4.98 µM.
The result for `c1ccc(CCc2nc(-c3ccncc3)no2)cc1` reads 5.02 µM; that for `COc1cc2c(cc1OC)CN(Cc1ccc(F)cc1)CC2`, 9.96 µM.
For `C(=C\c1ccccc1)/CN1CCN(C2CCc3ccccc3C2)CC1` (stereo not drawn), the EC50 was 9.92 µM.
As for `CCCCNc1cc(C)nc(N2CCOCC2)n1`, the 50% effective concentration (EC50) is 13.1 µM.
On to `c1ccc(CN2CCC(N3CCN(C4CC5CCC4C5)CC3)CC2)cc1` (stereo not drawn), for which the EC50 was 9.98 µM.
The result for `c1coc(CN2CCN(C3CCCCCC3)CC2)c1` reads 4.76 µM; that for `Cc1cc(C)c(NC(=O)COc2ccccc2[N+](=O)[O-])c(C)c1`, 3.13 µM (inactive); that for `O=C(c1ccc(CN2CCc3ccccc3C2)cc1)N1CCN(c2ccccc2F)CC1`, 6.04 µM.
To `C=CCN1C(=O)C(=O)c2cc(Br)ccc21` belongs 5.89 µM; to `O=C(Nc1ccc([N+](=O)[O-])cc1)c1c(F)c(F)c(F)c(F)c1F`, 1.36 µM (inactive); to `Cc1c(NC(=O)c2c(F)c(F)c(F)c(F)c2F)c(=O)n(-c2ccccc2)n1C`, 19 µM (inactive).
The result for `Clc1ccccc1OCCCCN1CCOCC1` reads 5.38 µM.
`CC(=O)Nc1ccc(S(=O)(=O)Nc2cc([N+](=O)[O-])ccc2C)cc1`: the EC50 was 3.21 µM (inactive).
Turning to `COc1ccc(CNC2CCSC2)cc1` (stereo not drawn), the EC50 was 0.314 µM.
As for `COc1cc(C(=O)Nc2ccc(S(=O)(=O)Nc3ncccn3)cc2)cc(OC)c1OC`, the EC50 was 30.9 µM (inactive).
To `COc1ccc(OC)c(CNCCc2ccc([N+](=O)[O-])cc2)c1` belongs 0.646 µM; to `C=CCNCC(=O)NC12CC3CC(CC(C3)C1)C2`, 2.81 µM.
`CC1CCC(N2CCN(c3ccccc3)CC2)C1` (stereo not drawn): the concentration giving a half-maximal response (EC50) was 0.629 µM.
Consider `COc1ccccc1N1CCN(C2CCN(Cc3cccc(F)c3)CC2)CC1`, for which the EC50 was 10.6 µM.
Take `Cc1ccc(OCCCN2CCOCC2)c(C)c1`: the EC50 is 10.3 µM.
Consider `C=C(C)CN(CC)C(=O)C1CCN(Cc2ccc(Cl)cc2)CC1`, for which the EC50 is 0.642 µM.
To `COc1ccc(OC)c(CN2CCN(Cc3ccc([N+](=O)[O-])cc3)CC2)c1` belongs 1.35 µM; to `Fc1ccc(CN2CCN(c3cccc(Cl)c3)CC2)cc1`, 1.29 µM; to `CN1CCN(CCCOc2ccc(Br)cc2)CC1`, 9.74 µM.
In the case of `O=C(O)C1CC=CCC1C(=O)Nc1ccc(F)cc1F` (stereo not drawn), the EC50 is 13.2 µM (inactive).
On to `O=S(=O)(c1ccc(F)cc1)n1cccc1`, for which the EC50 was 0.684 µM (inactive).
For the compound `COc1cc(CN2CCN(Cc3ccc([N+](=O)[O-])cc3)CC2)cc(OC)c1`, the EC50 is 3.78 µM.
For `Cn1c(SCC(=O)NCc2ccccc2)nnc1-c1ccc(C(C)(C)C)cc1`, the EC50 was 7.31 µM (inactive).
The result for `COc1ccccc1N1CCN(C2CCN(CC3CC4C=CC3C4)CC2)CC1` (stereo not drawn) reads 10.5 µM; that for `CCN(Cc1ccccc1)C(=O)C1CCN(Cc2ccccc2F)CC1`, 1.32 µM.
To `CC(C(=O)NCc1ccc(Cl)cc1)N(c1ccccc1)S(C)(=O)=O` (stereo not drawn) belongs 11.3 µM (inactive).
Consider `Cc1cccc(-c2noc(COc3ccc(Br)cc3)n2)c1`, for which the EC50 was 9.11 µM (inactive).
The result for `Cc1ccc(C(=O)NC(C)C2CC3CCC2C3)s1` (stereo not drawn) reads 15.3 µM (inactive); that for `Clc1cccc(N2CCN(Cc3ccsc3)CC2)c1`, 3.96 µM.
For `CCS(=O)(=O)N1CCN(C2CCCCCCC2)CC1`, the concentration for a half-maximal effect (EC50) is 5.99 µM.
To `CCN1CCN(C2CCC(c3ccccc3)CC2)CC1` (stereo not drawn) belongs 1.77 µM; to `Cc1cc(OCCCCN2CCN(C)CC2)cc(C(C)C)c1`, 1.92 µM; to `CN(CCC#N)C12CC3CC(CC(C3)C1)C2`, 8.62 µM.
Consider `O=[N+]([O-])c1ccc(CNC2CCCC2)cc1`, for which the EC50 is 0.645 µM.
The result for `Cc1ccccc1N1CCN(Cc2ccc(F)cc2)CC1` reads 1.35 µM; that for `CN1CCCN(Cc2ccc([N+](=O)[O-])o2)CC1`, 15 µM (inactive); that for `CCOc1ccc(CN2CCN(c3ccc([N+](=O)[O-])cc3)CC2)cc1`, 2.64 µM.
